# Laboratory results taken from patent US7060709B2, “Method of treating hepatic fibrosis” (Wyeth, priority 2003, dated 2006).
# Legend:
# [1] = tested on: human glioblastoma cell line; conditions: human glioblastoma cell line in vitro; cited from earlier work
# [2] = stability of CCI-779 in parenteral cosolvent formulation; type: physicochemical; conditions: citric acid at a concentration of less than 0.01% w/v
# Source text: In this embodiment, the stability of CCI-779 in parenterally acceptable alcoholic cosolvents is enhanced by addition of an antioxidant to the formulation. Acceptable antioxidants include, but are not limited to, citric acid, d,l-α-tocopherol, BHA, BHT, monothioglycerol, ascorbic acid, propyl gallate, and mixtures thereof. Generally, the parenteral formulations useful in this embodiment of the invention will contain an antioxidant component(s) in a concentration ranging from 0.001% to 1% w/v, or 0.01% to 0.5% w/v, of the cosolvent concentrate, although lower or higher concentrations may be desired. Of the antioxidants, d,l-α-tocopherol is particularly desirable and is used at a concentration of 0.01 to 0.1% w/v with a preferred concentration of 0.075% w/v of the cosolvent concentrate.
# Examples of such chelating agents include, e.g., citric acid, acetic acid, and ascorbic acid (which may function as both a classic antioxidant and a chelating agent in the present formulations). Other chelating agents include such materials as are capable of binding metal ions in solution, such as ethylene diamine tetra acetic acid (EDTA), its salts, or amino acids such as glycine are capable of enhancing the stability of CCI-779. […] Optimal concentrations for the selected antioxidant(s) can be readily determined by one of skill in the art, based upon the information provided herein.
# [3] = tested on: histologically diverse tumor cells; conditions: cited from earlier work
# [4] = tested on: human tumor xenografts; conditions: nude mice, cited from earlier work
# [5] = tested on: orthotopic glioma; conditions: nude mice; cited from earlier work
compound,measurement,setting,value
"CO[C@H]1C[C@@H]2CC[C@@H](C)[C@@](O)(O2)C(=O)C(=O)N2CCCC[C@H]2C(=O)O[C@H]([C@H](C)C[C@@H]2CC[C@@H](OC(=O)C(C)(CO)CO)[C@H](OC)C2)CC(=O)[C@H](C)/C=C(\C)[C@@H](O)[C@@H](OC)C(=O)[C@H](C)C[C@H](C)/C=C/C=C/C=C/1C [CCI-779, Rapamycin 42-ester with 3-hydroxy-2-(hydroxymethyl)-2-methylpropionic acid]",growth factor (platelet-derived)-induced stimulation,[1],markedly suppressed
same,stability of CCI-779,[2],enhanced the stability
same,cell cycle effect,[3]; in vitro tumor cells,arrested cells in the G1 phase
same,growth of tumor cells,"[3]; in vitro, CNS cancer, leukemia (T-cell), breast cancer, prostate cancer and melanoma lines among the most sensitive",inhibit the growth
same,growth of several human pancreatic tumors and one of two breast cancer lines,[4]; in vivo,inhibited
same,activity against human tumor xenografts of diverse histological types,[4]; gliomas particularly sensitive,has activity
same,activity in orthotopic glioma model,[5],active
